Read-outs that look alike come from different tables or passages of the source.
Legend:
[1] = system: HeLa cells; test: Cytotoxicity in HeLa cells, ATP content (ATPlite kit); assay type: cell-based; details: HeLa cells, three days incubation, ATP content
Description: (§1) Black 96-well clear-bottom microtiter plates (Corning, Amsterdam, The Netherlands) were filled in duplicate using a customized robot system with serial 4-fold dilutions of compound in a final volume of 50 μl culture medium [RPMI medium without phenol red, 10% FBS, 0.04% gentamycin (50 mg/mL) and 0.5% DMSO]. Then, 100 μl of a HeLa cell suspension (5×10^4 cells/mL) in culture medium was added to each well followed by the addition of 50 μl rgRSV224 (MOI=0.02) virus in culture medium using a multidrop dispenser (Thermo Scientific, Erembodegem, Belgium). rgRSV224 virus is an engineered virus that includes an additional GFP gene (Hallak et al, 2000) and was in-licensed from the NIH (Bethesda, Md., USA). Medium, virus- and mock-infected controls were included in each test. Cells were incubated at 37° C. in a 5% CO2 atmosphere. Three days post-virus exposure, viral replication was quantified by measuring GFP expression in the cells by a MSM laser microscope (Tibotec, Beerse, Belgium). The EC50 was defined as the 50% inhibitory concentration for GFP expression. In parallel, compounds were incubated for three days in a set of white 96-well microtitier plates (Corning) and the cytotoxicity of compounds in HeLa cells was determined by measuring the ATP content of the cells using the ATPlite kit (PerkinElmer, Zaventem, Belgium) according to the manufacturer's instructions. The CC50 was defined as the 50% concentration for cytotoxicity.

[2] = system: rgRSV224 virus; test: microbe, parasite or virus in culture; assay type: cell-based, respiratory syncytial virus (RSV); details: for SI CC50/EC50: ratio of CC50 (HeLa cytotoxicity) to EC50 (RSV)
Description: as §1

[3] = human respiratory syncytial virus, HeLa, 72 h, read-out: RSV-wt_EC50
[4] = human respiratory syncytial virus, HeLa, 72 h, read-out: WT activity EC50
[5] = rgRSV224 in HeLa cells, three days post-virus exposure, GFP expression, read-out: WT activity EC50

Compound | TOX-HELA_EC50 [1] | EC50 [2, 3] | EC50 [2, 4] | SI CC50/EC50 [2] | EC50 [2, 5]
CC(C)CCn1c(Cn2c(=O)n(C3CC3)c3ccncc32)nc2nc(Cl)ccc21 [Compound 1, 3-((5-chloro-1-isopentyl-1H-imidazo[4,5-b]pyridin-2-yl)methyl)-1-cyclopropyl-1H-imidazo[4,5-c]pyridin-2(3H)-one] | >9.836 µM | 0.365 nM | – | – | –
CC(C)CCn1c(Cn2c(=O)n(C3COC3)c3ccncc32)nc2nc(Cl)ccc21 [Compound 2, 3-((5-chloro-1-isopentyl-1H-imidazo[4,5-b]pyridin-2-yl)methyl)-1-(oxetan-3-yl)-1H-imidazo[4,5-c]pyridin-2(3H)-one] | >9.836 µM | 1.58 nM | – | – | –
CC(C)(C)C(=O)OCCCCn1c(Cn2c(=O)n(C3CC3)c3ccncc32)nc2nc(Cl)ccc21 [Compound 3, 4-(5-chloro-2-((1-cyclopropyl-2-oxo-1H-imidazo[4,5-c]pyridin-3(2H)-yl)methyl)-1H-imidazo[4,5-b]pyridin-1yl)butyl pivalate] | >9.836 µM | 3.29 nM | – | – | –
CC(C)CCn1c(Cn2c(=O)n(C3CC3)c3ccccc32)nc2cc(Br)cnc21 [Compound 30, 1-((6-bromo-3-isopentyl-3H-imidazo[4,5-b]pyridin-2-yl)methyl)-3-cyclopropyl-1H-benzo[d]imidazol-2(3H)-one] | >9.84 µM | – | – | – | –
O=c1n(Cc2nc3ncccc3n2CCCC(F)F)c2cnccc2n1C1CC1 [Compound 43, 1-cyclopropyl-3-((1-(4,4-difluorobutyl)-1H-imidazo[4,5-b]pyridin-2-yl)methyl)-1H-imidazo[4,5-c]pyridin-2(3H)-one] | – | – | 7.91 nM | 7161 | –
N#CCCCn1c(Cn2c(=O)n(C3CC3)c3ccncc32)nc2ccc(Cl)nc21 [Compound 49] | – | – | 1450 nM | >68 | –
COC(=O)c1nccc2c1n(Cc1nc3nc(Cl)ccc3n1CCCCO)c(=O)n2C1CC1 [Compound 62] | – | – | 294 nM | >339 | –
CC(=O)OCCCCn1c(Cn2c(=O)n(C3CC3)c3ccncc32)nc2nc(Cl)ccc21 [Compound 64] | – | – | – | >18058 | 5.54 nM
CC(C)C(=O)OCCCCn1c(Cn2c(=O)n(C3CC3)c3ccncc32)nc2nc(Cl)ccc21 [Compound 65] | – | – | – | >18110 | 5.52 nM
O=C1c2ccccc2C(=O)N1CCCCn1c(Cn2c(=O)n(C3CC3)c3ccncc32)nc2nc(Cl)ccc21 [Compound 66] | – | – | – | >16939 | 5.9 nM
CC(O)CCCn1c(Cn2c(=O)n(C3CC3)c3ccncc32)nc2nc(Cl)ccc21 (stereo not shown) [Compound 67, 3-{[5-chloro-1-(4-hydroxypentyl)-1H-imidazo[4,5-b]pyridin-2-yl]methyl}-1-cyclopropyl-1,3-dihydro-2H-imidazo[4,5-c]pyridin-2-one] | – | – | 7.91 nM | >12643 | –
COC(=O)NCCCCn1c(Cn2c(=O)n(C3CC3)c3ccncc32)nc2nc(Cl)ccc21 [Compound 68] | – | – | – | >12208 | 8.19 nM
O=c1n(Cc2nc3nc(F)ccc3n2CCCC(F)(F)F)c2cnccc2n1C1CC1 [Compound 69] | – | – | – | >1318 | 75.8 nM
O=c1n(Cc2nc3ncccc3n2CCCOC(F)(F)F)c2cnccc2n1C1CC1 [Compound 70] | – | – | – | >9116 | 11 nM
O=c1n(Cc2nc3nc(Cl)ccc3n2CCCC(F)(F)F)c2cnccc2n1CC(F)(F)F [Compound 71] | – | – | – | >108383 | 0.923 nM
O=c1n(Cc2nc3ncccc3n2CCCC(F)(F)F)c2cnccc2n1CC(F)(F)F [Compound 72] | – | – | – | >2766 | 3.61 nM
NC(=O)NCCCCn1c(Cn2c(=O)n(C3CC3)c3ccncc32)nc2nc(Cl)ccc21 [Compound 74] | – | – | – | >1997 | 5.01 nM
CC(C)(O)CCCn1c(Cn2c(=O)n(C3CC3)c3ccncc32)nc2nc(Cl)ccc21 [Compound 75, 3-((5-chloro-1-(4-hydroxy-4-methylpentyl)-1H-imidazo[4,5-b]pyridin-2-yl)methyl)-1-cyclopropyl-1H-imidazo[4,5-c]pyridin-2 (3H)-one] | – | – | 1.58 nM | >63325 | –
O=C(NCCCCn1c(Cn2c(=O)n(C3CC3)c3ccncc32)nc2nc(Cl)ccc21)OCCF [Compound 76] | – | – | – | >24518 | 4.08 nM

Compound | TOX-HELA_EC50 [1] | EC50 [2, 3] | EC50 [2, 4] | SI CC50/EC50 [2] | EC50 [2, 5]
O=C(NC1CCCC1)OCCCCn1c(Cn2c(=O)n(C3CC3)c3ccncc32)nc2nc(Cl)ccc21 [Compound 78] | – | – | – | 14406 | 5.73 nM
COc1ccc(NC(=O)OCCCCn2c(Cn3c(=O)n(C4CC4)c4ccncc43)nc3nc(Cl)ccc32)cc1 [Compound 79] | – | – | – | 1711 | 23.3 nM
CC1=C(NCCCCn2c(Cn3c(=O)n(C4CC4)c4ccncc43)nc3nc(Cl)ccc32)c2ccccc2S1(=O)=O [Compound 80] | – | – | – | >9628 | 10.4 nM
CC(C)OC(=O)NCCCCn1c(Cn2c(=O)n(C3CC3)c3ccncc32)nc2ncccc21 [Compound 81] | – | – | – | >1380 | 72.4 nM
O=C(NCCCCn1c(Cn2c(=O)n(C3CC3)c3ccncc32)nc2nc(Cl)ccc21)OC1CCCC1 [Compound 82] | – | – | – | 5649 | 17.1 nM
O=C(Nc1ccc(F)cc1C(F)(F)F)OCCCCn1c(Cn2c(=O)n(C3CC3)c3ccncc32)nc2nc(Cl)ccc21 [Compound 83] | – | – | – | 4731 | 14 nM
O=C(Nc1ccc(F)c(Cl)c1)OCCCCn1c(Cn2c(=O)n(C3CC3)c3ccncc32)nc2nc(Cl)ccc21 [Compound 84] | – | – | – | 354 | 18.9 nM
O=c1n(Cc2nc3ncccc3n2CCCCF)c2cnccc2n1CC(F)(F)F [Compound 85] | – | – | – | 1436 | 8.54 nM
O=C(Nc1ccc(Cl)cc1)OCCCCn1c(Cn2c(=O)n(C3CC3)c3ccncc32)nc2nc(Cl)ccc21 [Compound 86] | – | – | – | 263 | 36.8 nM
O=c1n(Cc2nc3nc(Cl)ccc3n2CCCC(F)(F)F)c2cc(F)ccc2n1CC(F)(F)F [Compound 87] | – | – | – | >49069 | 2.04 nM
CC(C)(CO)CCn1c(Cn2c(=O)n(C3CC3)c3ccncc32)nc2nc(Cl)ccc21 [Compound 88] | – | – | – | >4517 | 11.1 nM
O=c1n(Cc2nc3ncccc3n2CCCC(F)(F)F)c2cc(F)ccc2n1CC(F)(F)F [Compound 89] | – | – | – | >2037 | 49.1 nM
CC(C)CCn1c(Cn2c(=O)n(CC(F)(F)F)c3ccncc32)nc2nc(Cl)ccc21 [Compound 90] | – | – | – | 36156 | 2.6 nM
O=c1n(Cc2nc3ncccc3n2CCCc2ccccc2)c2cnccc2n1C1CC1 [Compound 91] | – | – | – | >8223 | 12.2 nM
CC(C)CCn1c(Cn2c(=O)n(CC(F)(F)F)c3ccc(F)cc32)nc2nc(Cl)ccc21 [Compound 92] | – | – | – | 13572 | 6.72 nM
O=c1n(Cc2nc3ncccc3n2CCCc2ccccc2)c2cc(F)ccc2n1C1CC1 [Compound 93] | – | – | – | >3176 | 31.5 nM
O=c1n(Cc2nc3ncccc3n2CCCc2ccccn2)c2cnccc2n1C1CC1 [Compound 94] | – | – | – | >748 | 126 nM
CC(C)CCn1c(Cn2c(=O)n(C3CC3)c3ccncc32)nc2nc(C(=N)N)ccc21 [Compound 105] | – | – | 0.316 nM | >330179 | –

— patent US9321767B2, “Azabenzimidazoles as respiratory syncytial virus antiviral agents” (JANSSEN SCIENCES IRELAND UC, priority 2010, dated 2016)
